In ChEMBL document CHEMBL5338783, “Discovery of an Anti-TNF-α 9-mer Peptide from a T7 Phage Display Library for the Treatment of Inflammatory Bowel Disease” (J Med Chem, 2023):
Active and inactive are the calls of the source. The calls are words filed in the database; no cut-off is given here. Peptide text beside a SMILES is read from it.

Legend:
[1] = molecular target: T1, Tumor necrosis factor receptor superfamily member 1B (Homo sapiens) (UniProt P20333); experiment: Binding affinity to TNFR2 (unknown origin) at 488.3 to 500 uM incubated for 10 mins by MST assay; settings: dose 488.3-500 µM
T1 sequence (whole entry): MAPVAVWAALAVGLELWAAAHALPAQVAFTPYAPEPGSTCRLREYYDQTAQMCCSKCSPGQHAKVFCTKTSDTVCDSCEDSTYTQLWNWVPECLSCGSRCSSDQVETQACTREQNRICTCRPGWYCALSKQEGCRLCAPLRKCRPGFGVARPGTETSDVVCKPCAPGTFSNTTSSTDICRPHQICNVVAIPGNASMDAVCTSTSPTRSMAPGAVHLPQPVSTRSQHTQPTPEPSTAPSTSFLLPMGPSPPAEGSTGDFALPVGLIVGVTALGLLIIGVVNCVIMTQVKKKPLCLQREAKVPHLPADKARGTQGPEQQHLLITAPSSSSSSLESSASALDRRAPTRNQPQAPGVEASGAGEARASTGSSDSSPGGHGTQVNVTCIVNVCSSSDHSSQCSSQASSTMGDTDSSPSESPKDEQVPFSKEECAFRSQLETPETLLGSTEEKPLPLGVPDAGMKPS

[2] = system: BMDM; experiment: Antiinflammatory activity in mouse BMDM cells assessed as decrease in LPS-stimulated TNF-alpha mRNA level incubated for 3 hrs by RT-qPCR analysis; assay type: functional, cell-based; settings: dose 25-100 µM
[3] = system: BMDM; experiment: Antiinflammatory activity in LPS-stimulated mouse BMDM cells assessed as inhibition of NF-kappaB signalling pathway incubated for 3 hrs by Western blot analysis; assay type: functional, cell-based; settings: dose 25-100 µM
[4] = system: RAW264.7; experiment: Antiinflammatory activity in mouse RAW264.7 cells assessed as decrease in LPS-stimulated IFN-gamma mRNA level at 25 to 100 uM incubated for 3 hrs by RT-qPCR analysis; assay type: functional, cell-based; settings: dose 25-100 µM
[5] = system: RAW264.7; experiment: Antiinflammatory activity in LPS-stimulated mouse RAW264.7 cells assessed as inhibition of p38 phosphorylation incubated for 3 hrs by Western blot analysis; assay type: functional, cell-based; settings: dose 25-100 µM
[6] = system: Mus musculus; experiment: Anti-colitis activity against DSS-induced acute colitis in C57BL/6 mouse model assessed as reduction in colonic tissue damage at 0.5 to 1 mg/kg, ip daily for 7 days by H and E staining based analysis; assay type: functional, organism-based; settings: dose 0.5-1 mg/kg, time 7.0 day
[7] = system: Mus musculus; experiment: Antiinflammatory activity against DSS-induced acute colitis in C57BL/6 mouse model assessed as decrease in ERK1/2 phosphorylation in colon tissue administered intraperitoneally daily for 7 days by Western blot analysis; assay type: functional, organism-based; settings: dose 0.5-1 mg/kg, route ip, time 7.0 day
[8] = system: BMDM; experiment: Antiinflammatory activity in LPS-stimulated mouse BMDM cells assessed as inhibition of MAPK signalling pathway incubated for 3 hrs by Western blot analysis; assay type: functional, cell-based; settings: dose 25-100 µM
[9] = system: Mus musculus; experiment: Anti-colitis activity against DSS-induced acute colitis in C57BL/6 mouse model assessed as decrease in disease activity index at 1 mg/kg, ip daily for 7 days; assay type: functional; settings: time 7 day
[10] = system: Mus musculus; experiment: Anti-colitis activity against DSS-induced acute colitis in C57BL/6 mouse model assessed as reduction in goblet cell depletion in colon at 0.5 to 1 mg/kg, ip daily for 11 days by H and E staining based analysis; assay type: functional, organism-based; settings: dose 0.5-1 mg/kg, time 11.0 day
[11] = system: RAW264.7; experiment: Antiinflammatory activity in mouse RAW264.7 cells assessed as decrease in LPS-stimulated IL-6 mRNA level at 25 to 100 uM incubated for 3 hrs by RT-qPCR analysis; assay type: functional, cell-based; settings: dose 25-100 µM
[12] = molecular target: Tumor necrosis factor (Homo sapiens, UniProt P01375); experiment: Binding affinity to TNF-alpha (unknown origin) assessed as dissociation constant by SPR analysis
[13] = system: Mus musculus; experiment: Anti-colitis activity against DSS-induced acute colitis in C57BL/6 mouse model assessed as increase in spleen index at 0.5 to 1 mg/kg, ip daily for 7 days; assay type: functional, organism-based; settings: dose 0.5-1 mg/kg, time 7.0 day
[14] = system: Mus musculus; experiment: Anti-colitis activity against DSS-induced acute colitis in C57BL/6 mouse model assessed as reduction in granulocyte infiltration in colon at 0.5 to 1 mg/kg, ip daily for 11 days by H and E staining based analysis; assay type: functional, organism-based; settings: dose 0.5-1 mg/kg, time 11.0 day
[15] = system: Mus musculus; experiment: Anti-colitis activity against DSS-induced acute colitis in C57BL/6 mouse model assessed as increase in body weight value at 1 mg/kg, ip daily for 7 days; assay type: functional; settings: time 7 day
[16] = system: RAW264.7; experiment: Antiinflammatory activity in LPS-stimulated mouse RAW264.7 cells assessed as inhibition of JNK1/2 phosphorylation incubated for 3 hrs by Western blot analysis; assay type: functional, cell-based; settings: dose 25-100 µM
[17] = system: RAW264.7; experiment: Antiinflammatory activity in mouse RAW264.7 cells assessed as decrease in LPS-stimulated TNF-alpha protein expression incubated for 3 hrs by flow cytometry; assay type: functional, cell-based; settings: dose 25-100 µM
[18] = system: Mus musculus; experiment: Anti-colitis activity against DSS-induced acute colitis in C57BL/6 mouse model assessed as […] in IFN-gamma mRNA level at 0.5 to 1 mg/kg, ip daily for 7 days by RT-qPCR analysis; assay type: functional, organism-based; settings: dose 0.5-1 mg/kg, time 7.0 day
[19] = system: Mus musculus; experiment: Anti-colitis activity against DSS-induced acute colitis in C57BL/6 mouse model assessed as reduction in colon length at 0.5 to 1 mg/kg, ip daily for 7 days; assay type: functional, organism-based; settings: dose 0.5-1 mg/kg, time 7.0 day
[20] = system: Mus musculus; experiment: Anti-colitis activity against DSS-induced acute colitis in C57BL/6 mouse model assessed as decrease in disease activity index at 0.5 to 1 mg/kg, ip daily for 7 days; assay type: functional, organism-based; settings: dose 0.5-1 mg/kg, time 7.0 day
[21] = system: RAW264.7; experiment: Cytotoxicity against mouse RAW264.7 cells upto 1000 uM; assay type: toxicity, cell-based; settings: raw264.7, 1000 µM
[22] = system: RAW264.7; experiment: Antiinflammatory activity in mouse RAW264.7 cells assessed as decrease in LPS-stimulated IL-6 protein expression incubated for 3 hrs by flow cytometry; assay type: functional, cell-based; settings: dose 25-100 µM
[23] = system: RAW264.7; experiment: Antiinflammatory activity in LPS-stimulated mouse RAW264.7 cells assessed as inhibition of IkappaBalpha phosphorylation incubated for 3 hrs by Western blot analysis; assay type: functional, cell-based; settings: dose 25-100 µM
[24] = molecular target: T2, Tumor necrosis factor receptor superfamily member 1A (Homo sapiens) (UniProt P19438); experiment: Inhibition of TNF-alpha (unknown origin) binding to TNFR1 by SPR analysis
T2 sequence (whole entry): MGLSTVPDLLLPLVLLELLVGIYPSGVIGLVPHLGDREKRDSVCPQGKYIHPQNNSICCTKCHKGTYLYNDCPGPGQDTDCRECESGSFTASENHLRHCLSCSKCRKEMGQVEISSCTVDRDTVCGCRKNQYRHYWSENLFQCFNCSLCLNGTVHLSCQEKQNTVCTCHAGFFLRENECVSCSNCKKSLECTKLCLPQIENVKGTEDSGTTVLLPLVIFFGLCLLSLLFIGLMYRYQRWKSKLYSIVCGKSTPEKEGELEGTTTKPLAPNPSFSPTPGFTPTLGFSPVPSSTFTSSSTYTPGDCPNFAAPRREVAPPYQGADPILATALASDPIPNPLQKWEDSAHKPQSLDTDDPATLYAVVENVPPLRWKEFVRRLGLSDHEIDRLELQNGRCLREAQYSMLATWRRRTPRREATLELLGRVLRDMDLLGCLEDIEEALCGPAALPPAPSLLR

[25] = system: RAW264.7; experiment: Antiinflammatory activity in mouse RAW264.7 cells assessed as decrease in LPS-stimulated IL-1beta protein expression incubated for 3 hrs by flow cytometry; assay type: functional, cell-based; settings: dose 25-100 µM
[26] = molecular target: T2, Tumor necrosis factor receptor superfamily member 1A (Homo sapiens); experiment: Binding affinity to TNFR1 (unknown origin) at 488.3 to 500 uM incubated for 10 mins by MST assay; settings: dose 488.3-500 µM

Tumor necrosis factor, sequence (P01375 whole entry): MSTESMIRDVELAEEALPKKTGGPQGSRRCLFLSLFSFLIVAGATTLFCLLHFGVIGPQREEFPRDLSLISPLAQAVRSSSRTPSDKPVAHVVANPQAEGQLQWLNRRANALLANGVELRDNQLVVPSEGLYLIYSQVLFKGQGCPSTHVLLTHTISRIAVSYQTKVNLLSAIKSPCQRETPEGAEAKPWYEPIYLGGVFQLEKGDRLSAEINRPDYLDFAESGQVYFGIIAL

C[C@H](N)C(=O)N[C@@H](CS)C(=O)N[C@@H](Cc1cnc[nH]1)C(=O)N[C@@H](C)C(=O)N[C@@H](Cc1c[nH]c2ccccc12)C(=O)N[C@@H](C)C(=O)N1CCC[C@H]1C(=O)N[C@H](C(=O)N[C@@H](CCCNC(=N)N)C(=O)O)[C@@H](C)O (H-ACHAWAPTR-OH) was tested, and the Activity [1] was “inactive”, the Activity [2] was “Dose-Dependent Effect” and the Activity [3] was “Dose-Dependent Effect”. For the same molecule, the Activity [4] was “Dose-Dependent Effect”, the Activity [5] was “Dose-Dependent Effect” and the Activity [6] was “Active”. For the same molecule, the Activity [7] was “Dose-Dependent Effect”, the Activity [8] was “Dose-Dependent Effect” and the Activity [9] was -1.25. The Activity [10] was “Active”, the Activity [11] was “Dose-Dependent Effect” and the Kd [12] was 6 µM. For the same molecule, the Activity [13] was “Active”, the Activity [14] was “Active” and the Activity [15] was 0.24. For the same molecule, the Activity [16] was “Dose-Dependent Effect”, the Activity [17] was “Dose-Dependent Effect” and the Activity [18] was “Active”. The Activity [19] was “Active”, the Activity [20] was “Active” and the Activity [21] was “Non-Toxic”. The Activity [22] was “Dose-Dependent Effect”, the Activity [23] was “Dose-Dependent Effect” and the inhibition [24] was “Active”. The Activity [25] was “Dose-Dependent Effect” and the Activity [26] was “inactive”.
